What all share (assay): DTP human tumour cell line panel, 48 h
The subject of assay [1] is 786-0.
Assay [2] concerns CAKI-1.
The subject of assay [3] is CCRF-CEM.
Assay [4] relates to COLO 205.
The subject of assay [5] is DU-145.
In assay [6] the test system is EKVX.
In assay [7] the test system is HCC 2998.
For assay [8], the system named is HCT-15.
The subject of assay [9] is Hs-578T.
Assay [10] relates to KM12.
Assay [11] has as its system MDA-MB-231.
Assay [12] concerns MDA-MB-435.
Assay [13] relates to MOLT-4.
Assay [14] relates to NCI/ADR-RES.
Assay [15] concerns OVCAR-5.
For assay [16], the system named is SF-268.
Assay [17] concerns SNB-19.
Assay [18] has as its system U-251.
In assay [19] the test system is UACC-62.
Assay [20] concerns UO-31.

The results in this text go back to ChEMBL document CHEMBL1201862, “PubChem BioAssay data set” (2004).

As a reminder, the GI50 is the concentration giving 50% growth inhibition.

Structures are written as SMILES.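 Exposure lasted 48 hours, with cells grown in 96-well plates and compounds tested at five concentrations. At the GI50, growth is halved.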 Activity calls are given as the source filed them. Cut-off read from the data, not from the text of the source: active = GI50 up to about 1.1 µM and inactive = higher. Where only a bound is given, the exact number is not on record here.

On to `COc1ccc2cc(-c3ccc(OC)c(OC)c3)c(=O)oc2c1`, for which the GI50 is 52 µM (inactive) in assay [1]; > 100 µM (inactive) in assay [2]; > 100 µM (inactive) in [3]; > 100 µM (inactive) in assay [4]; > 100 µM (inactive) in assay [5]; > 100 µM (inactive) in assay [6]. Besides, the GI50 was > 100 µM (inactive) in [7]; greater than 100 µM in assay [8]; 29.3 µM (inactive) in assay [9]; > 100 µM (inactive) in [10]; 48.6 µM (inactive) in assay [11]; > 100 µM (inactive) in assay [12]. The GI50 is > 100 µM (inactive) in assay [13]; > 100 µM (inactive) in assay [14]; > 100 µM (inactive) in [15]; 62.1 µM (inactive) in assay [16]; 40 µM (inactive) in assay [17]; 57.4 µM (inactive) in [18]. Further, the GI50 in assay [19] and in assay [20] was > 100 µM (inactive) each time.

With `O=C1NCc2ccccc2S(=O)(=O)n2cccc21`, the GI50 in [1], in assay [2], in [3], in assay [4], in assay [5] and in assay [6] was > 100 µM (inactive) throughout. For the same compound, the GI50 in assay [7] is > 100 µM (inactive); in [8], greater than 100 µM; in [9], > 100 µM (inactive); in assay [10], > 100 µM (inactive); in [11] it was > 100 µM (inactive); in assay [12], > 100 µM (inactive). Moreover, the GI50 in assay [13], in [14], in assay [15], in assay [16], in assay [17] and in [18] was > 100 µM (inactive) each time. For the same compound, the GI50 in assay [19] and in assay [20] was > 100 µM (inactive) each time.

As for `C=C1C(=O)O[C@@H]2/C=C(C)/C=C\[C@@H]3O[C@@]3(C)C[C@@H](O)C12` (stereo not given in full), the GI50 is 8.69 µM (inactive) in assay [1]; 8.91 µM (inactive) in assay [2]; 1.66 µM (inactive) in assay [3]; 5.2 µM (inactive) in [4]; 3.63 µM (inactive) in [5]; 3.89 µM (inactive) in assay [6]. Besides, the GI50 in assay [7] is 18.9 µM (inactive); in assay [8] it was 6.27 µM; in assay [9] it was 39.2 µM (inactive); in assay [10], 15.5 µM (inactive); in assay [11], > 10 µM (inactive); in [12], 18 µM (inactive). Further, the GI50 in assay [13] was 5.14 µM (inactive); in assay [14], 4.51 µM (inactive); in assay [15], 33.2 µM (inactive); in [16] it was 26.4 µM (inactive); in [17], 17.5 µM (inactive); in assay [18], 17.8 µM (inactive). Further, the GI50 is 12.9 µM (inactive) in [19] and 12.4 µM (inactive) in [20].

Take `O=C1/C(=C\c2ccc(F)cc2)CCOc2c1ccc1ccccc21`: the GI50 in [1] is 23 µM (inactive); in assay [2], 21.1 µM (inactive); in [3] it was 5.82 µM (inactive); in assay [4], 19 µM (inactive); in [5], 31 µM (inactive); in [6], 31.4 µM (inactive). Besides, the GI50 in assay [7] is 3.48 µM (inactive); in assay [8], 11.2 µM; in assay [9], 40.3 µM (inactive); in assay [10] it was 7.94 µM (inactive); in assay [11] it was 14.8 µM (inactive); in assay [12], 26.8 µM (inactive). The GI50 in assay [13] was 7.67 µM (inactive); in [14], 16.3 µM (inactive); in [15], 18.5 µM (inactive); in assay [16], 23.4 µM (inactive); in assay [17], 17.7 µM (inactive); in assay [18] it was 10.6 µM (inactive). Moreover, the GI50 in assay [19] was 37.2 µM (inactive); in assay [20] it was > 55.2 µM (inactive).

`CCCCC1Cc2cc(O)ccc2-c2nc3cc(O)ccc3n21.CCCCC1Cc2cc(O)ccc2-c2nc3ccc(O)cc3n21` (stereo not given): the GI50 in [1] is 19 µM (inactive); in assay [2], 23.7 µM (inactive); in assay [3], 19.2 µM (inactive); in assay [4], 15.7 µM (inactive); in [5], 28.5 µM (inactive); in [6] it was 17.2 µM (inactive). Also, the GI50 is 14.3 µM (inactive) in [7]; 11 µM in assay [8]; 16.3 µM (inactive) in assay [9]; 19.4 µM (inactive) in assay [10]; 13.6 µM (inactive) in [11]; 11.9 µM (inactive) in [12]. The GI50 was 13.6 µM (inactive) in [13]; 18.6 µM (inactive) in assay [14]; 16.6 µM (inactive) in assay [15]; 12 µM (inactive) in assay [16]; 11 µM (inactive) in assay [17]; 14.4 µM (inactive) in [18]. The GI50 is 12.8 µM (inactive) in [19] and 13.1 µM (inactive) in assay [20].

As for `COc1ccc(NC(=O)NNS(=O)(=O)c2ccc(C)cc2)cc1`, the GI50 was 0.792 µM (active) in assay [1]; > 100 µM (inactive) in assay [2]; > 100 µM (inactive) in [3]; > 100 µM (inactive) in [4]; > 100 µM (inactive) in [5]; > 100 µM (inactive) in [6]. In addition, the GI50 is > 100 µM (inactive) in assay [7]; greater than 100 µM in [8]; > 100 µM (inactive) in assay [9]; 91.6 µM (inactive) in [10]; > 100 µM (inactive) in assay [11]; 30.4 µM (inactive) in assay [12]. In addition, the GI50 in [13], in [14], in [15], in assay [16], in assay [17] and in assay [18] was > 100 µM (inactive) throughout. The results for the GI50 in assay [19] and in [20] were 70 µM (inactive) and > 100 µM (inactive), respectively.

For the compound `CC(=S)N/C=C1/C(=O)C=C(C)OC1=O`, the GI50 in assay [1], in [2], in assay [3], in assay [4], in assay [5] and in [6] was > 100 µM (inactive) in each case. Moreover, the GI50 in assay [7] is > 100 µM (inactive); in assay [8] it was greater than 100 µM; in assay [9], > 100 µM (inactive); in assay [10] it was > 100 µM (inactive); in assay [11], > 100 µM (inactive); in assay [12] it was > 100 µM (inactive). The GI50 in assay [13], in assay [14], in [15], in assay [16], in [17] and in assay [18] was > 100 µM (inactive) throughout. Moreover, the GI50 in assay [19] and in assay [20] was > 100 µM (inactive) in each case.

In the case of `CC(=O)O[C@H]1C[C@H](O[C@H]2[C@@H](O)C[C@H](O[C@H]3[C@@H](O)C[C@H](O[C@H]4CC[C@@]5(C)[C@H](CC[C@@H]6[C@@H]5CC[C@]5(C)[C@@H](C7=CC(=O)OC7)CC[C@]65O)C4)O[C@@H]3C)O[C@@H]2C)O[C@H](C)[C@H]1O[C@@H]1O[C@H](CO)[C@@H](O)[C@H](O)[C@H]1O`, the GI50 was 0.0162 µM (active) in assay [1]; < 0.01 µM (active) in assay [2]; 0.0269 µM (active) in [3]; 0.0491 µM (active) in assay [4]; < 0.01 µM (active) in [5]; < 0.0148 µM (active) in [6]. Further, the GI50 in assay [7] is 0.0615 µM (active); in [8], 0.0231 µM; in assay [9], < 0.01 µM (active); in assay [10] it was 0.065 µM (active); in assay [11], 0.256 µM (active); in assay [12], 0.034 µM (active). The GI50 in assay [13] was > 100 µM (inactive); in assay [14], < 0.0169 µM (active); in assay [15], 0.0342 µM (active); in assay [16], < 0.0125 µM (active); in assay [17] it was 0.0658 µM (active); in [18], 0.032 µM (active). Also, the GI50 in [19] is 0.132 µM (active); in assay [20], 0.0242 µM (active).

Take `CCCCCCCCCC[C@@H](O)[C@H]1CC[C@@H]([C@H]2CC[C@H]([C@H](O)CCCCCCCCCC[C@@H]3CC(CC(C)=O)C(=O)O3)O2)O1` (stereo not given in full): the GI50 is 25.8 µM (inactive) in assay [1]; 31 µM (inactive) in assay [2]; 12.9 µM (inactive) in assay [3]; 1.52 µM (inactive) in assay [4]; 9.27 µM (inactive) in [5]; 0.372 µM (active) in [6]. Further, the GI50 in assay [7] was 19.1 µM (inactive); in assay [8] it was 5.12 µM; in assay [9], 1.04 µM (active); in assay [10], 2.52 µM (inactive); in assay [11], 3.64 µM (inactive); in [12] it was 32.4 µM (inactive). For the same compound, the GI50 was 4.13 µM (inactive) in assay [13]; 0.167 µM (active) in assay [14]; 48.1 µM (inactive) in assay [15]; 2.1 µM (inactive) in [16]; 2.9 µM (inactive) in [17]; 2.65 µM (inactive) in assay [18]. The GI50 in assay [19] was 3.92 µM (inactive); in [20], 2.49 µM (inactive).

Regarding `Sc1nn2c(Cc3ccccc3)nnc2s1`, the GI50 in [1], in assay [2], in assay [3], in [4], in assay [5] and in [6] was > 100 µM (inactive) each time. The GI50 in assay [7] is > 100 µM (inactive); in assay [8] it was greater than 100 µM; in assay [9], > 100 µM (inactive); in assay [10] it was > 100 µM (inactive); in [11] it was > 100 µM (inactive); in assay [12], > 100 µM (inactive). The GI50 in [13], in [14], in [15], in [16], in assay [17] and in [18] was > 100 µM (inactive) each time. The GI50 in assay [19] and in assay [20] was > 100 µM (inactive) throughout.
